Results reported in patent US20120135923A1, “Use of Melanocortins to Treat Dyslipidemia” (IPSEN PHARMA, S.A.S., priority 2009, published 2012).
Where two headings read alike, the source gives them in different places. Bridge positions count the residues as written; N and C are the ends. Square brackets hold non-standard residues; d marks the D form. Peptide text beside a SMILES is read from it. βAla = NCCC(=O)O

How the values were obtained:
hMC5-R [1] = target: T1, hMC5-R (Homo sapiens, UniProt P33032); test: Radioligand binding assay, [125I]-NDP-α-MSH competition, CHO-K1 membranes
T1 construct: expressed in transfected cells; host or cells: CHO-K1
Experimental: (§1) Cellular membranes used for the in vitro receptor binding assays were obtained from transgenic CHO-K1 cells stably expressing hMC-R receptor subtypes 1, 3, 4 or 5. […] The pellets were resuspended in the same buffer and centrifuged at 50,000 g for 10 minutes at approximately 4° C. The washed pellets containing the cellular membranes were stored at approximately −80° C.
(§2) Cell membranes (1-10 μg protein/well) prepared as described above were incubated in 50 mM Tris-HCl at pH 7.4 containing 0.2% bovine serum albumin (BSA), 5 mM MgCl2, 1 mM CaCl2 and 0.1 mg/mL bacitracin, with increasing concentrations of the test compound and 0.1-0.3 nM [^25I]-NDP-α-MSH for approximately 90-120 minutes at approximately 37° C. […] Filters were washed three times with 50 mM Tris-HCl at pH 7.4 at a temperature of approximately 0-4° C. and then assayed for radioactivity using a Packard Topcount® scintillation counter. Binding data were analyzed by computer-assisted non-linear regression analysis (XL fit; IDBS).

hMC3-R [2] = target: T2, hMC3-R (Homo sapiens, UniProt P41968); test: as above; details: Table 5
T2 construct: expressed in transfected cells; host or cells: CHO-K1
Experimental: as §1, §2

hMC1-R [3] = target: T3, hMC1-R (Homo sapiens, UniProt Q01726); test: as above; details: Table 5
T3 construct: expressed in transfected cells; host or cells: CHO-K1
Experimental: as §1, §2

hMC3-R [4] = target: T2, hMC3-R; test: cyclic AMP bioassay (ECL) in CHO-K1 cells; format: cell-based
hMC4-R [5] = target: T4, hMC4-R (Homo sapiens, UniProt P32245); test: cyclic AMP bioassay (ECL) in CHO-K1 cells; format: cell-based
T4 construct: expressed in transfected cells; host or cells: CHO-K1

hMC1-R [6] = target: T3, hMC1-R; test: cyclic AMP bioassay (ECL) in CHO-K1 cells; format: cell-based
hMC5-R [7] = target: T1, hMC5-R; test: cyclic AMP bioassay (ECL) in CHO-K1 cells; format: cell-based
hMC4-R [8] = target: T4, hMC4-R; test: Radioligand binding assay, [125I]-NDP-α-MSH competition, CHO-K1 membranes
Experimental: as §1, §2

[9] = Table 9A/9B, read-out: EC50 hMC3-R
[10] = Table 9A/9B, read-out: EC50 hMC4-R
[11] = Table 9A/9B, read-out: EC50 hMC1-R
[12] = Table 9A/9B, read-out: EC50 hMC5-R

T2 sequence (P41968 whole entry): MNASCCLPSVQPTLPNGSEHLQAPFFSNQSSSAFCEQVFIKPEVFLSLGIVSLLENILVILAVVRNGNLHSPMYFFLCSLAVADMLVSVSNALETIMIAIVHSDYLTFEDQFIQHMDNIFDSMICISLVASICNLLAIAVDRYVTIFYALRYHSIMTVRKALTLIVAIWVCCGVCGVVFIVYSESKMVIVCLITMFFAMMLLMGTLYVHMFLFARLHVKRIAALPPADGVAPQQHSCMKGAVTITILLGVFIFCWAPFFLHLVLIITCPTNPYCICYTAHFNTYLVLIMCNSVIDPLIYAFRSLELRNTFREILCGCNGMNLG
T1 sequence (P33032 whole entry): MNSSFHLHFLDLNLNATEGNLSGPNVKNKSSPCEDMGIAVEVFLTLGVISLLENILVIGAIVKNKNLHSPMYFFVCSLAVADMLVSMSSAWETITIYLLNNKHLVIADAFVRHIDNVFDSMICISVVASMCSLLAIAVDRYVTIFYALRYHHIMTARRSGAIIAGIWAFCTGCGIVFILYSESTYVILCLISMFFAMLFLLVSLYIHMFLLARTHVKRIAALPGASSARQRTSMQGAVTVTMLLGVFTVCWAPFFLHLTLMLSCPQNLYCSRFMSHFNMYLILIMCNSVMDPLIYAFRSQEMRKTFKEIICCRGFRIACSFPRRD
T4 sequence (P32245 whole entry): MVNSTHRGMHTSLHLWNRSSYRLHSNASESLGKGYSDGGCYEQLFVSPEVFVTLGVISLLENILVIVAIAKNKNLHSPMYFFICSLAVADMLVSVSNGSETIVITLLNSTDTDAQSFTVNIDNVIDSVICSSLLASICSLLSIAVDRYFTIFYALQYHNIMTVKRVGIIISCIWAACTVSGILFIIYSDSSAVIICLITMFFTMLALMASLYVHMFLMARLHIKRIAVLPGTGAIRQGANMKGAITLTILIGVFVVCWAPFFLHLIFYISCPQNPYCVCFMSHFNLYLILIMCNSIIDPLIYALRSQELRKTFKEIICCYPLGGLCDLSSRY
T3 sequence (Q01726 whole entry): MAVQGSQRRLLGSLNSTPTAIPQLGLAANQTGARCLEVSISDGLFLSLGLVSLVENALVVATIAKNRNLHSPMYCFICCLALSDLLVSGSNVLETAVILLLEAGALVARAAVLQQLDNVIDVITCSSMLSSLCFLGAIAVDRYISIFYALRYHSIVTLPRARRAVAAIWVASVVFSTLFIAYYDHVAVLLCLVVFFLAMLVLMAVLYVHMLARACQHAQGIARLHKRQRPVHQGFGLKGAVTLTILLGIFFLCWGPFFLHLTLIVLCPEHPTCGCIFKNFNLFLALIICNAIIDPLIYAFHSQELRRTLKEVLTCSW

CCOc1ccc(C[C@H]2NC(=O)[C@H](Cc3c[nH]cn3)NC(=O)[C@@H](NC(=O)[C@H](N)Cc3ccccc3)CSSC[C@H](C(=O)N[C@H](C(N)=O)[C@@H](C)O)NC(=O)CCNC(=O)[C@H](Cc3c[nH]c4ccccc34)NC(=O)[C@H](CCCNC(=N)N)NC2=O)cc1 [D-Phe-c(Cys-His-D-(Et)Tyr-Arg-Trp-β-Ala-D-Cys)-Thr-NH2] (H-[dF]CH[dY](Et)RW[βAla][dC]T-NH2; disulfide 2-8)
Ki (hMC5-R [1]; Table 5, read-out: Ki hMC5-R): 2.9 nM | Ki (hMC3-R [2]; read-out: Ki hMC3-R): 9.3 nM | Ki (hMC1-R [3]; read-out: Ki hMC1-R): 0.05 nM | EC50 (hMC3-R [4]; [9]): 1.1 nM | EC50 (hMC4-R [5]; [10]): 0.11 nM | EC50 (hMC1-R [6]; [11]): 0.35 nM | EC50 (hMC5-R [7]; [12]): 0.37 nM

CC(=O)N[C@H]1CSSC[C@@H](C(=O)N2CCC[C@H]2C(=O)N2CCC[C@H]2C(=O)N[C@@H](CCCCN)C(=O)N[C@@H](CC(=O)O)C(=O)NCCC(=O)N[C@@H](CCCNC(=N)N)C(=O)N[C@@H](CCCNC(=N)N)C(=O)N[C@@H](CCCCN)C(=O)N[C@@H](CCCNC(=N)N)C(=O)N[C@@H](CCCNC(=N)N)C(=O)N[C@@H](CCC(N)=O)C(=O)N[C@@H](CCCNC(=N)N)C(=O)N[C@@H](CCCNC(=N)N)C(=O)N[C@@H](CCCNC(=N)N)C(N)=O)NC(=O)[C@H](C)NC(=O)[C@H](Cc2csc3ccccc23)NC(=O)[C@H](CCCNC(=N)N)NC(=O)[C@@H](Cc2ccc3ccccc3c2)NC(=O)[C@H](Cc2c[nH]cn2)NC(=O)[C@H](CCC(=O)O)NC1=O
Ki (hMC5-R [1]; Ki hMC5-R, Table 6): 15.5 nM | Ki (hMC4-R [8]; Ki hMC4-R, Table 6): 0.442 nM | Kb (hMC4-R [5]): 10 nM | EC50 (hMC1-R [6]): 232 nM | EC50 (hMC5-R [7]): 250 nM

CC(=O)N[C@H](CCCNC(=N)N)C(=O)N[C@H]1CSSC(C)(C)[C@@H](C(N)=O)NC(=O)[C@H](Cc2c[nH]c3ccccc23)NC(=O)[C@H](CCCNC(=N)N)NC(=O)[C@@H](Cc2ccccc2)NC(=O)[C@H](Cc2c[nH]cn2)NC(=O)[C@@H](C)NC1=O [Ac-D-Arg-c(Cys-D-Ala-His-D-Phe-Arg-Trp-Pen)-NH2]
Ki (hMC5-R [1]; Ki hMC5-R, Table 5): 816 nM | Ki (hMC3-R [2]; Ki hMC3-R): 13.3 nM | Ki (hMC1-R [3]; Ki hMC1-R): 8.29 nM | EC50 (hMC3-R [4]): 10.5 nM | EC50 (hMC4-R [5]): 0.493 nM | EC50 (hMC1-R [6]): 26.5 nM | EC50 (hMC5-R [7]): 2440 nM

CCCC[C@H](NC(C)=O)C(=O)N[C@H]1CSSC[C@@H](C(N)=O)NC(=O)[C@H](Cc2c[nH]c3ccccc23)NC(=O)[C@H](CCCNC(=N)N)NC(=O)[C@@H](Cc2ccc3ccccc3c2)NC(=O)[C@H](Cc2c[nH]cn2)NC(=O)[C@@H](C)NC1=O [Ac-Nle-c(Cys-D-Ala-His-D-2-Nal-Arg-Trp-Cys)-NH2]
Ki (hMC5-R [1]; Ki hMC5-R, Table 5): 102 nM | Ki (hMC4-R [8]; Ki KMC4-R, Table 5): 7.61 nM | Kb (hMC3-R [4]): 12.4 nM | Kb (hMC4-R [5]): 38.8 nM | EC50 (hMC1-R [6]): 17.6 nM | EC50 (hMC5-R [7]): 11.8 nM

CCCC[C@H](NC(C)=O)C(=O)N[C@H]1CSSC[C@@H](C(N)=O)NC(=O)CCCNC(=O)[C@H](Cc2c[nH]c3ccccc23)NC(=O)[C@H](CCCNC(=N)N)NC(=O)[C@@H](Cc2ccccc2)NC(=O)[C@H](Cc2cccnc2)NC1=O [Ac-Nle-c(Cys-3-Pal-D-Phe-Arg-Trp-Gaba-Cys)-NH2]
Ki (hMC5-R [1]; Table 5, read-out: Ki hMC5-R): 92.6 nM | Ki (hMC3-R [2]; read-out: Ki hMC3-R): 151 nM | Ki (hMC1-R [3]; read-out: Ki hMC1-R): 21.1 nM

CC(=O)N[C@@H](CC1CCCCC1)C(=O)N[C@H]1CC(=O)NCCCC[C@@H](C(N)=O)NC(=O)CCCNC(=O)[C@H](Cc2c[nH]c3ccccc23)NC(=O)[C@H](CCCNC(=N)N)NC(=O)[C@@H](Cc2ccccc2)NC(=O)[C@H](Cc2c[nH]cn2)NC1=O [Ac-Cha-c(Asp-His-D-Phe-Arg-Trp-Gaba-Lys)-NH2]
Ki (hMC4-R [8]; Table 5, read-out: Ki KMC4-R): 1.49 nM | EC50 (hMC3-R [4]; [9]): 0.189 nM | EC50 (hMC4-R [5]; [10]): 0.0949 nM | EC50 (hMC1-R [6]; [11]): 3.26 nM | EC50 (hMC5-R [7]; [12]): 30.2 nM

CCCC[C@H](NC(C)=O)C(=O)N[C@H]1CSSC(C)(C)[C@@H](C(=O)O)NC(=O)[C@H](Cc2c[nH]c3ccccc23)NC(=O)[C@H](CCCNC(=N)N)NC(=O)[C@@H](Cc2ccccc2)NC(=O)[C@H](Cc2c[nH]cn2)NC(=O)[C@@H](C)NC1=O [Ac-Nle-c(Cys-D-Ala-His-D-Phe-Arg-Trp-Pen)-OH]
Ki (hMC5-R [1]; Ki hMC5-R, Table 5): 165 nM | Ki (hMC4-R [8]; Ki KMC4-R, Table 5): 17.4 nM
